The results in this text go back to patent US20160319277A1, “METHODS OF IMPROVED PROTEIN PRODUCTION USING MIRNAs AND SIRNAs” (THE JOHNS HOPKINS UNIVERSITY, priority 2015, published 2016).

For data set [1], the system named is T-REx-293-NTSR1-GFP cells. The data set can be described thus: High-throughput human miRNA mimic library screen, image-based per cell green fluorescence (NTSR1-GFP expression). The note with it: per cell green fluorescence intensity; for MAD-based z-score: 72 h after transfection plus 24 h tetracycline induction. The procedure: T-REx-293-NTSR1-GFP cells were screened with a miRNA mimic library (Qiagen) based on Sanger miRBase™ 13.0 and consisting of 875 miRNAs mimics. For transfection, 0.8 pmol of each mimic was spotted to 384 well plate wells (Corning) and 20 μL of serum-free DMEM containing 0.1 μL of Lipofectamine™ RNAiMax (Life Technologies) was then added to each well. This lipid-miRNA mixture was incubated at ambient temperature for 30 min prior to adding 2000 cells in 20 μL of DMEM containing 20% certified FBS (Gibco). Transfected cells were incubated at 37° C. in 5% CO2 for 72 hours and induced with 1 μg/mL tetracycline for 24 hours for NTSR1-GFP expression. Cells were then fixed with 2% paraformaldehyde (Electron Microscopy Sciences), stained with Hoechst™ 33342 (Life Technologies) for 45 minutes and gently washed with PBS. Plates were imaged with an ImageXpress Micro XL™ (Molecular Devices). Total cell number and per cell green fluorescence intensity were calculated using MetaXpress™ software (Molecular Devices) employing the Multi-Wavelength Cell Scoring™ application module. […] A full column of positive control siRNA targeting GFP (GFP-22 siRNA, Qiagen) was also used as on-plate reference for transfection efficiency. The median absolute deviation (MAD)-based z-score was calculated for each sample.

A further data set deals with NTSR1. The data set can be described thus: [3H]NT binding assay on detergent-solubilized cells for functional expression of NTSR1. It is filed as cell-based. Particulars: for improvement of functional expression of NTSR1 compared with siN.C.: [3H]NT binding. The procedure:
Validation transfections were performed in 12-well plates with miScript™ miRNA mimics (Qiagen, Cat. No. 219600-S0), SilencerSelect™ Negative Control #2 and lethal control siRNA (Qiagen AllStars Cell Death Control™) served as a control for transfection efficiency. Cells were transfected as described for screening except 0.15 million cells were transfected with 40 nM miRNA using 6.25 ul Lipofectamine™ RNAiMax in a total volume of 1 mL of media. 72 hours after transfection, cells were induced with 1 μg/mL tetracycline. 24 hours later, cells from each well were detached with non-enzymatic cell dissociation buffer (Gibco, Cat. No. 13150-016) and washed twice with cold PBS. Cell densities and viability were determined by trypan blue exclusion using a CEDEX™ cell quantification system (Roche, Mannheim, Germany). Based on the counts, cell densities were adjusted to 0.5 million cells/ml with PBS and then subject to flow cytometry analysis. The remaining cells were pelleted and frozen on dry ice for [^3H]NT binding assays.
The detergents n-Dodecyl-β-D-maltoside (LM), 3-[(3-cholamidopyropyl) dimethylammonio]-1-propane sulfonate (CHAPS) and cholesteryl hemisuccinate Tris salt (CHS) were obtained from Anatrace. Cell pellets from 2 mL of suspension culture were suspended in Tris-glycerol-NaCl buffer. Then the detergents LM, CHAPS and CHS were added to give a final buffer composition of 50 mM TrisHCl pH 7.4, 200 mM NaCl, 30% (v/v) glycerol, 1% (w/v) LM, and 0.6% (w/v) CHAPS and 0.12% (w/v) CHS in a total volume of 0.5 mL. The samples were placed on a rotating mixer at 4° C. for 1 hour. Cell debris and non-solubilized material were removed by ultracentrifugation (TL100 rotor, 60 k rpm, 4° C., 30 min in Optima Max™ bench-top ultracentrifuge, Beckman), and the supernatants containing detergent-solubilized NTSR1 were used to determine the total number of expressed receptors by a detergent-based radio-ligand binding assay (see below).
Tritiated neurotensin agonist [^3H]NT ([3,11-tyrosyl-3,5-^3H(N)]-pyro[…] SEQ ID NO:27) was purchased from Perkin Elmer. Ligand-binding assays with detergent-solubilized receptors were carried out in TEBB assay buffer (50 mM Tris pH 7.4, 1 mM EDTA, 40 μg/mL bacitracin, 0.1% BSA) containing 0.1% (w/v) LM, 0.2% (w/v) CHAPS and 0.04% (w/v) CHS. For one-point assays, receptors were incubated with 2 nM [^3H]NT on ice for 1 hour in a volume of 150 μL. The concentration of [^3H]NT used was at least 5-fold above the apparent dissociation constants for detergent-solubilized NTSR1 to allow high receptor occupancy. Separation of the receptor-ligand complex from free ligand (100 μL) was achieved by centrifugation-assisted gel filtration using Bio-Spin™ 30 Tris columns (BioRad), equilibrated with RDB buffer (50 mM Tris-HCl, pH 7.4, 1 mM EDTA, 0.1% (w/v) LM, 0.2% (w/v) CHAPS, 0.04% (w/v) CHS). Non-specific [^3H]NT binding of 220 dpm was subtracted from total binding to calculate the total amount of receptors in T-REx-293-NTSR1-GFP cells. The number of functional NTSR1 was estimated by specific [^3H]NT binding assuming one ligand-binding site per receptor molecule. The number of cells in the assay was derived by cell counting at cell harvest. This approach led to the calculation of the parameter “receptors/cell”.

For data set [2], the system named is CMV-Luc2-HygroHEK293 cell line. The data set is described as follows: Validation of miRNAs with luciferase-expressing cells (ONE-Glo / CellTiter-Glo, 12-well). It is filed as cell-based, human. Particulars: 40 nM miRNA, 72 h; for improvement of luciferase expression (per cell luciferase activity): 12-well, versus siN.C. The procedure:
CMV-Luc2-HygroHEK293 cell line constitutively expressing luciferase is purchased from Promega. Validation transfections were performed in 12-well plates with miScript miRNA mimics (Qiagen, Cat. No. 219600-S0), SilencerSelect™ Negative Control #2 and lethal control siRNA (Qiagen AllStars Cell Death Control™) served as a control for transfection efficiency. Cells were transfected in duplicates as described above in the screening method with the following modification: 0.1 million cells were transfected with 40 nM miRNA using 6.25 ul Lipofectamine™ RNAiMax in a total volume of 1 mL of media. 72 hours after transfection, 500 μL of ONE-Glo™ Reagent (Promega) was added to one set of replicates for luciferase activity quantification and 500 μL of CellTiter-Glo™ Reagent (Promega) was added to the second set of replicates for viable cell density measurement. All plates were incubated at room temperature for 20 minutes to stabilize luminescent signal and then measured with SpectraMax i3™ plate reader (Molecular Devices). Per cell luciferase production was calculated from overall luciferase activity and viable cell number.
(ATP-based viability assays read luminescence as a measure of living cells.)

A further data set relates to HEK-GPC3-hFc cell line. The data set is described as follows: Validation of miRNAs with GPC3-hFc-expressing cells (ELISA and cell count). The format is cell-based, human. Particulars: 40 nM miRNA, 6 days after transfection, versus siN.C. The procedure:
HEK-GPC3-hFc cell line constitutively secreting glypican-3 hFc-fusion protein (GPC3-hFc) was a gift from the National Cancer Institute of the NIH. Cells were grown in DMEM supplemented with 10% FBS in a humidified incubator set at 37° C. and 5% CO2.
Cells were transfected in 12-well plates as described above in the screening method with the following modification: 0.15 million cells were transfected with 40 nM miRNA using 6.25 ul Lipofectamine™ RNAiMax in a total volume of 1 mL of media. 6 days after transfection, cell culture supernatant was collected and cleared using centrifuge for GPC3-hFc concentration determination with ELISA and cells were detached and counted by trypan blue exclusion using a CEDEX™ cell quantification system (Roche, Mannheim, Germany). Per cell GPC3-hFc production can be calculated from overall GPC3-hFc yield and viable cell number.
AffiniPure™ F(ab′)2 Fragment Goat Anti-Human IgG (min X Bov, Ms, Rb Sr Prot, Cat. 109-006-170, Jackson Immunology) was used to coat a 96-well plate at 5 μg/mL in PBS buffer, 50 μL per well, at 4° C. overnight. After the plate was blocked with 2% BSA in PBS buffer, pre-diluted cell culture supernatant was added, and the plate was incubated at room temperature for one hour to allow binding to occur. After the plate was washed twice with PBS containing 0.05% Tween 20, Peroxidase-conjugated AffiniPure™ Goat-anti-uman IgG (Cat. 109-035-098, Jackson Immunology) was added at 1:4000 dilutions, 50 ul/well. Following incubating at room temperature for one hour, the plate was washed 4 times and detected with Peroxidase Substrate System (KPL).

In the case of “CACUGGCUCCUUUCUGGGUAGA (listed as RNA, chemistry not given here; listed as Homo sapiens) [miR-892b, human miRNA mimic]”, in data set [1], the “Signal relative to negative control (%)” value was found to be 201% and the MAD-based z-score was 3.7. In addition, the “improvement of functional expression of NTSR1 compared with siN.C.” value (“improvement … compared with siN.C.” below) in the data set with NTSR1 was “not associated with enhanced binding activity”. In data set [2], the “cell growth (viable cell density)” value is “inhibited cell growth”, the “overall production of luciferase higher than negative control siN.C.” value is on record as 188% and the “improvement of luciferase expression (per cell luciferase activity)” value (shortened to “improvement … (per cell luciferase activity)”) was found to be 239%.

For the sequence UUGGGGAAACGGCCGCUGAGUG [miR-2110], in data set [1], the “Signal relative to negative control (%)” value was determined as 160% and the MAD-based z-score came out at 2.3. For the same sequence, in the data set on NTSR1 (specific [3H]NT binding, 2 nM), the “functional neurotensin receptor molecules per cell” value is recorded as 13.8 million functional neurotensin receptor molecules per cell. Further, in data set [2], the “improvement … (per cell luciferase activity)” value is listed as “relevant for improving luciferase expression”. In addition, in the data set with HEK-GPC3-hFc cell line, the “improvement of per cell GPC3-hFc secretion” value is “enhanced per cell GPC3-hFc secretion”.

On to “AGUUCUUCAGUGGCAAGCUUUA (listed as RNA, chemistry not given here; listed as Homo sapiens) [miR-22-5p, human miRNA mimic]”, for which, in data set [1], the “Signal relative to negative control (%)” value is on record as 215% and the MAD-based z-score was 4.0. Also, the “improvement … (per cell luciferase activity)” value in data set [2] is given as “relevant for improving luciferase expression”. Also, in the data set on HEK-GPC3-hFc cell line, the “change of overall GPC3-hFc production” value is on record as “effectively enhanced overall GPC3-hFc” and the “improvement of per cell GPC3-hFc secretion” value is listed as “enhanced per cell GPC3-hFc secretion”.

For the sequence “UAAGGUGCAUCUAGUGCAGAUAG (listed as RNA, chemistry not given here; listed as Homo sapiens) [miR-18a-5p, human miRNA mimic]”, in data set [1], the “Signal relative to negative control (%)” value is recorded as 149% and the MAD-based z-score is reported as 2.0. The “improvement … compared with siN.C.” value with NTSR1 is “improved functional activity levels”. Also, the “improvement … (per cell luciferase activity)” value in data set [2] is reported as “relevant for improving luciferase expression”. In the data set with HEK-GPC3-hFc cell line, the “change of overall GPC3-hFc production” value is reported as “effectively enhanced overall GPC3-hFc” and the “improvement of per cell GPC3-hFc secretion” value is on record as “enhanced per cell GPC3-hFc secretion”.

“AAGCUGCCAGUUGAAGAACUGU (listed as RNA, chemistry not given here; listed as Homo sapiens) [miR-22-3p, human miRNA mimic]”: in data set [1], the “Signal relative to negative control (%)” value is 158% and the MAD-based z-score turned out to be 2.3. For the same sequence, in data set [2], the “cell growth (viable cell density)” value was “inhibited cell growth” and the “overall production of luciferase higher than negative control siN.C.” value was 127%. Also, in the data set with HEK-GPC3-hFc cell line, the “change of overall GPC3-hFc production” value is “effectively enhanced overall GPC3-hFc” and the “improvement of per cell GPC3-hFc secretion” value is “enhanced per cell GPC3-hFc secretion”.

Regarding “AUCGCUGCGGUUGCGAGCGCUGU (listed as RNA, chemistry not given here; listed as Homo sapiens) [miR-639, human miRNA mimic]”, in data set [1], the “Signal relative to negative control (%)” value turned out to be 165% and the MAD-based z-score came out at 2.4. Besides, in the data set with NTSR1, the “improvement … compared with siN.C.” value is recorded as “not associated with enhanced binding activity”.

“CUUUUUGCGGUCUGGGCUUGC (listed as RNA, chemistry not given here; listed as Homo sapiens) [miR-129-5p, human miRNA mimic]”: in data set [1], the “Signal relative to negative control (%)” value worked out at 172% and the MAD-based z-score worked out at 2.7. Besides, the “improvement … compared with siN.C.” value in the data set on NTSR1 was “not associated with enhanced binding activity”.

Regarding “UAAUACUGUCUGGUAAAACCGU (listed as RNA, chemistry not given here; listed as Homo sapiens) [miR-429, human miRNA mimic]”, in data set [1], the “Signal relative to negative control (%)” value is listed as 212% and the MAD-based z-score is 4.2. The “improvement … compared with siN.C.” value in the data set with NTSR1 was “improved functional activity levels”. Moreover, the “improvement … (per cell luciferase activity)” value in data set [2] is reported as “relevant for improving luciferase expression”. In addition, the “improvement of per cell GPC3-hFc secretion” value with HEK-GPC3-hFc cell line is “enhanced per cell GPC3-hFc secretion”.

Consider “ACCUGGCAUACAAUGUAGAUUU (listed as RNA, chemistry not given here; listed as Homo sapiens) [miR-221-5p, human miRNA mimic]”, for which, in data set [1], the “Signal relative to negative control (%)” value turned out to be 248% and the MAD-based z-score stood at 5.3. Besides, in the data set on NTSR1, the “improvement … compared with siN.C.” value is recorded as “not associated with enhanced binding activity”.
